The source of these data is US9018207B2, “Method of treatment or prophylaxis” (Spinifex Pharmaceuticals Pty Ltd, priority 2004, dated 2015).

Molecules are shown by their SMILES. Entries after “also recorded” stand apart in the source; their conditions may differ. Bounds are passed on as bounds.

What all share (type): in vivo, Sprague-Dawley (SD) rats
One experiment concerns STZ-diabetic rats. Put plainly: Relief of tactile allodynia (von Frey paw withdrawal thresholds) in the hindpaws of STZ-diabetic rats (model of PDN). The protocol: Adult male SD rats were anaesthetized in a manner similar to that described above, to facilitate insertion of a polyethylene cannula (previously filled with 0.1 ml of sterile saline) into the right common jugular vein. Jugular vein cannulae were tested for correct placement by the withdrawal of a small amount of blood. Diabetes was induced following an acute i.v. injection of streptozotocin (STZ) (80 mg/kg) in 0.1 M citrate buffer (pH 4.5) into the jugular vein. Diabetes was confirmed by monitoring the water intake and blood glucose concentration in individual rats. Blood glucose was monitored using either (Glucostix™) or a Precision QID™ test kit.
Consistent with previous studies in the literature (Calcutt et al., 1996, Pain. 68(2-3):293-9), rats that drank more than 100 mL of water per day by 10 days post-STZ injection, were classified as diabetic, and only rats with blood glucose concentrations exceeding 15 mM were included in the subsequent experiments. By comparison, the water intake of control non-diabetic rats was approximately 20 mL per day and blood glucose concentrations were in the range 5-6 mM, consistent with the literature (Calcutt et al., 1996, supra).
Whilst under light anaesthesia with CO2/O2 (50:50%), CCI-rats or STZ-diabetic rats received a single bolus injection (200 μL) of one AT2 receptor antagonist (PD123,319 or L-159,686) by the intravenous (i.v.) or the intraperitoneal (i.p.) route, using a 250 μL Hamilton syringe. The test compounds were administered to CCI-rats at 14 days after CCI-surgery and to STZ-diabetic rats at approximately 8-wks after the induction of diabetes with STZ. Relief of tactile (mechanical) allodynia, the defining symptom of neuropathic pain, by each of the test agents, PD123,319 or L-159,686, was quantified using calibrated von Frey filaments as described below.
Tactile allodynia was quantified using calibrated von Frey filaments. Rats were placed in wire mesh testing cages (20 cm×20 cm×20 cm) and allowed to acclimatise for approximately […] Von Frey filaments were used to determine the lowest mechanical threshold required for a brisk paw withdrawal reflex. Briefly, the filament that produced the lowest force was applied to the plantar surface of the hindpaw until the filament buckled slightly. Absence of a response after 5 s prompted use of the next filament in an ascending sequence. Filaments used produced a buckling weight of 2, 4, 6, 8, 10, 12, 14, 16, 18 and 20 g and these were calibrated prior to each testing session.
For CCI-rats, baseline von Frey paw withdrawal thresholds (PWTs) were quantified prior to CCI-surgery, and at 14 days post-surgery immediately prior to drug administration. For STZ-diabetic rats, baseline von Frey PWT values were determined prior to the induction of diabetes with STZ and at 1-2 weekly intervals thereafter for 8 weeks to document the temporal development of tactile allodynia. For all rats, baseline PWTs were the mean of three readings taken, 5 min apart before drug administration and were determined separately for each hindpaw. After administration of each test compound, von Frey PWTs were determined at the following post-dosing times: 0.08, 0.25, 0.5, 0.75, 1, 1.25, 1.5, 2 and 3 h.
Paw withdrawal thresholds (PWTs; g) were plotted against time to construct response versus time curves for each of the two test compounds (PD123,319 and L-159,686) for each dose and dosing route.
Whilst adult male SD rats were anaesthetized with 3% isoflurane: 97% oxygen, a short polyethylene cannula (0.4 mm ID, 0.8 mm OD) was inserted into the jugular vein to facilitate the intravenous (i.v) administration of a single dose of STZ (75 mg/kg). After removal of the i.v. cannula, the jugular vein was tied off, the wound was closed and topical bupivacaine was applied. Rats received benzylpenicillin (60 mg s.c.) to prevent infection and were kept warm during surgical recovery. […]

For experiment [1], the system named is rats with a chronic constriction injury (CCI) of the sciatic nerve. Put plainly: Antinociception (von Frey paw withdrawal thresholds) in the contralateral hindpaw of CCI-rats. Particulars: i.p. doses up to 30 μg/kg. The protocol:
(§1) Adult male Sprague-Dawley (SD) rats were anaesthetized with Zoletil 100® (0.09 ml/200 g) and Xylazil-20™ (0.1 mL/200 g) administered by intraperitoneal (i.p.) injection, and a chronic constriction injury (CCI) of the sciatic nerve was produced according to the method of Bennett and Xie (1988). Briefly, the left common sciatic nerve was exposed at mid-thigh level by blunt dissection through the biceps femoris. Proximal to the trifurcation, 10 mm of nerve was freed of adhering tissue and four loose ligatures (3.0 silk) were tied around the sciatic nerve 1 mm apart). The incision was closed in layers. After surgery, rats received benzylpenicillin (60 mg s.c.) to prevent infection and were kept warm during surgical recovery. Rats were housed singly for 10-14 days prior to AT2 receptor antagonist or vehicle (normal saline) administration. After CCI-surgery, rats were inspected daily with regard to posture of the affected hindpaw, exploring behavior, body weight and water intake, and any signs of autotomy. Whilst under light anaesthesia with CO2/O2 (50:50%), CCI-rats or STZ-diabetic rats received a single bolus injection (200 μL) of one AT2 receptor antagonist (PD123,319 or L-159,686) by the intravenous (i.v.) or the intraperitoneal (i.p.) route, using a 250 μL Hamilton syringe. The test compounds were administered to CCI-rats at 14 days after CCI-surgery and to STZ-diabetic rats at approximately 8-wks after the induction of diabetes with STZ. Relief of tactile (mechanical) allodynia, the defining symptom of neuropathic pain, by each of the test agents, PD123,319 or L-159,686, was quantified using calibrated von Frey filaments as described below. Tactile allodynia was quantified using calibrated von Frey filaments. Rats were placed in wire mesh testing cages (20 cm×20 cm×20 cm) and allowed to acclimatise for approximately […] Von Frey filaments were used to determine the lowest mechanical threshold required for a brisk paw withdrawal reflex. Briefly, the filament that produced the lowest force was applied to the plantar surface of the hindpaw until the filament buckled slightly. Absence of a response after 5 s prompted use of the next filament in an ascending sequence. Filaments used produced a buckling weight of 2, 4, 6, 8, 10, 12, 14, 16, 18 and 20 g and these were calibrated prior to each testing session. […] For CCI-rats, baseline von Frey paw withdrawal thresholds (PWTs) were quantified prior to CCI-surgery, and at 14 days post-surgery immediately prior to drug administration. For STZ-diabetic rats, baseline von Frey PWT values were determined prior to the induction of diabetes with STZ and at 1-2 weekly intervals thereafter for 8 weeks to document the temporal development of tactile allodynia. For all rats, baseline PWTs were the mean of three readings taken, 5 min apart before drug administration and were determined separately for each hindpaw. After administration of each test compound, von Frey PWTs were determined at the following post-dosing times: 0.08, 0.25, 0.5, 0.75, 1, 1.25, 1.5, 2 and 3 h. Paw withdrawal thresholds (PWTs; g) were plotted against time to construct response versus time curves for each of the two test compounds (PD123,319 and L-159,686) for each dose and dosing route. Whilst adult male SD rats were anaesthetized with 3% isoflurane: 97% oxygen, four loose ligatures were tied around one sciatic nerve to produce a unilateral chronic constriction injury (CCI) according to the method of Bennett and Xie (1988, Pain 33: 87-107). […]

Experiment [2] has the same test system. The experiment in a line: Relief of tactile allodynia (von Frey paw withdrawal thresholds) in the ipsilateral (injured) hindpaw of CCI-rats. Particulars: oral bolus 30 μg/kg vs same dose i.p.
Experiment [3] has the same test system. The description is as above. The protocol: as §1, with “87-107). Briefly, the left common sciatic nerve was exposed at mid-thigh level by blunt dissection through the biceps femoris. Proximal to the trifurcation, 10 mm of nerve was freed of adhering tissue and four loose ligatures (3.0 silk) were tied around the sciatic nerve 1 mm apart). The incision was closed in layers. After surgery, rats received benzylpenicillin (60 mg s.c.) to prevent infection and were kept warm during surgical recovery.” for “87-107).”

[4] abbreviates: STZ-diabetic rats, i.p. bolus 1.0 to 100 ng/kg.
[5] abbreviates: CCI-rats, i.p. bolus 3 to 30 μg/kg.

As to `COc1ccc2c(c1OCc1ccccc1)C[C@@H](C(=O)O)N(C(=O)C(c1ccccc1)c1ccccc1)C2` [PD-126,055], in the experiment on STZ-diabetic rats (STZ-diabetic rat model of PDN, single i.p. bolus doses), the “relief of tactile allodynia (summary in discussion)” value is on record as “potent relief of tactile allodynia”. In the experiment with STZ-diabetic rats (setting [4]), the duration of action lay in the range of 2 to 3 h, the “onset of action post-dosing” value is recorded as 0.5 h, the “relief of tactile allodynia” value is reported as “significant relief of tactile allodynia” and the “time of peak anti-allodynia post-dosing” value lay within 0.75 to 1.0 h. Moreover, the “reversal of tactile allodynia in the hindpaws” value in the experiment on STZ-diabetic rats (STZ-diabetic rats, i.p., higher doses tested) is given as “fully reversed”. Further, in the experiment with STZ-diabetic rats (STZ-diabetic rats, single i.p. bolus doses), the “onset of anti-allodynia (summary in discussion)” value is reported as “relatively rapid onset”. Also, the “antinociception in the contralateral hindpaw” value in experiment [1] is recorded as “insignificant antinociception”. Moreover, in experiment [2], the “extent and duration of the anti-allodynic response, oral compared with i.p. route” value is given as “similar”. In addition, the “doses required to produce significant relief of tactile allodynia in CCI-rats compared with STZ-diabetic rats” value in experiment [3] (CCI-rats vs STZ-diabetic rats) is recorded as “considerably larger doses”. The duration of action in experiment [3] (CCI-rats, 30 μg/kg, irrespective of dosing route (oral or i.p.)) is reported as around 3 h. Also, in experiment [3] (setting [5]), the “anti-allodynia (relief of tactile allodynia) in the ipsilateral hindpaw” value is “dose-dependent onset of anti-allodynia; also recorded: dose-dependent relief of tactile allodynia”, the “onset of anti-allodynia in the ipsilateral hindpaw” value was “rapid” and the “time of peak responses post-dosing” value lay in the range of 0.75 to 1 h. Also, the duration of action in experiment [3] (CCI-rats, i.p., doses larger than 3 μg/kg) was above 3 h. In addition, the duration of action in experiment [3] (CCI-rats, i.p., lowest dose tested (3 μg/kg)) was determined as 1.5 h.
